Source: patent US8044089B2, “3-3-di-substituted-oxindoles as inhibitors of translation initiation” (President and Fellows of Harvard College, priority 2004, dated 2011)

Key:
eIF2α = eIF2α phosphorylation measured by Western blot; assay type: cell-based; conditions: for eIF2α-P (phosphorylation of eIF2α measured by Western blot): unit or reference not given
From the text: (§1) As a non-limiting example, compounds 1272 and 1273 (set forth in Table 1) were synthesized starting from 3-bromoaniline, which upon condensation with hydroxylamine and chloral hydrate followed by concentrated sulfuric acid yielded an inseparable regioisomeric mixture of 4- and 6-bromo isatins. The addition of the two phenyl groups to the three position of the oxindole allowed easy chromatographic separation of the 4- and 6-bromo-3,3-diphenyloxindoles 1272 and 1273. Table 1 sets forth biological data for diaryloxindole compounds including, but not limited to 1272 and 1273. For Tables 1-14, Ca^2+ refers to Ca^2+ release from intracellular stores where a “+” denotes release and a “+/−” denotes inconclusive; eIF2α-P refers to phosphorylation of eIF2α measured by Western blot; SRB refers to the inhibitory concentration to reduce cell growth by 50% (IC50) for growth inhibition of A549 lung cancer cells; and n.d. is not determined.
(§2) Without intending to be bound by theory, the mechanism of action of translation initiation inhibitors is set forth in FIG. 1, and includes the depletion (complete or partial depletion) of intracellular calcium (Ca^2+) stores and phosphorylation of eIF2α. Compounds synthesized using the approaches described herein were screened for their ability to partially deplete intracellular Ca^2+ stores using FURA-2AM loaded cells (Benzaquen et al. (1995) Nature Medicine, 1:534, incorporated herein by reference in its entirety for all purposes). A limited subset of compounds were further screened for their ability to deplete endoplasmic reticulum (ER) Ca^2+. The Ca^2+ content of the ER was monitored using ER-targeted, Ca^2+ sensitive, recombinant proteins. These recombinant proteins emitted light by fluorescent resonance energy transfer (FRET) as a function of the Ca^2+ content of the medium. Such assays are previously described (Miyawaki, A.; Mizuno, H.; Llopis, J.; Tsien, R. Y.; Jalink, K. Cameleons as cytosolic and intra-organellar calcium probes, Oxford University Press: Oxford, London, 2001; pp 3-16, incorporated herein by reference in its entirety for all purposes). Compounds that depleted Ca^2+ were further evaluated for their ability to phosphorylate eIF2α. eIF2α phosphorylation was measured by Western blot analysis using the phospho-specific anti-eIF2α antibody, as previously described (Aktas et al. (1998) Proc. Natl. Acad. Sci. USA, 95:8280, incorporated herein by reference in its entirety for all purposes).

A549 lung cancer cells = experiment: SRB growth inhibition of A549 lung cancer cells; assay type: cell-based, human; conditions: A549 lung cancer cells; unit inferred; read-out: SRB (IC50 for growth inhibition of A549 lung cancer cells)
From the text: As a non-limiting example, compounds 1272 and 1273 (set forth in Table 1) were synthesized starting from 3-bromoaniline, which upon condensation with hydroxylamine and chloral hydrate followed by concentrated sulfuric acid yielded an inseparable regioisomeric mixture of 4- and 6-bromo isatins. The addition of the two phenyl groups to the three position of the oxindole allowed easy chromatographic separation of the 4- and 6-bromo-3,3-diphenyloxindoles 1272 and 1273. Table 1 sets forth biological data for diaryloxindole compounds including, but not limited to 1272 and 1273. For Tables 1-14, Ca^2+ refers to Ca^2+ release from intracellular stores where a “+” denotes release and a “+/−” denotes inconclusive; eIF2α-P refers to phosphorylation of eIF2α measured by Western blot; SRB refers to the inhibitory concentration to reduce cell growth by 50% (IC50) for growth inhibition of A549 lung cancer cells; and n.d. is not determined. […]

[1] = tested on: intracellular Ca^2+ stores; experiment: Ca2+ release from intracellular stores (FURA-2AM loaded cells); assay type: cell-based; design: key to Ca^2+ (Ca^2+ release from intracellular stores): a “+” denotes release; a “+/−” denotes inconclusive
From the text: as §1, §2

Compound	IC50 (A549 lung cancer cells) [µM]	eIF2α-P (phosphorylation of eIF2α measured by Western blot) (eIF2α)	Ca^2+ (Ca^2+ release from intracellular stores) [1]	eIF2α phosphorylation (in words) (eIF2α)
Cc1cc(C2(c3ccccc3)C(=O)Nc3c(C(=O)O)cccc32)c(NS(C)(=O)=O)cc1O (centres unmarked) [Compound 1417]	> 20	0.96	+	–
O=C1Nc2ccccc2C1(c1ccccc1)c1ccc(O)c(C(F)(F)F)c1 (centres unmarked) [Compound 1242]	14	2.72	+	–
O=C1Nc2c(Cn3ccnc3)ccc(Cl)c2C1(c1ccccc1)c1ccccc1 [Compound 1401]	> 20	2.56	+/−	–
CC(C)(C)c1ccc(O)c(C2(c3ccccc3)C(=O)Nc3c(C(=O)O)cccc32)c1 (centres unmarked) [Compound 1408]	> 20	2.08	+	–
O=C1Nc2ccccc2C1(c1ccccc1)c1ccccc1 [Compound 1194]	13	2.5	+	–
CC(C)(C)c1ccc(O)c(C2(c3ccccc3)C(=O)Nc3ccc(N)cc32)c1 (centres unmarked) [Compound 1231]	14	1.46	+	–
COc1cccc(C2(c3ccccc3)C(=O)Nc3ccccc32)c1 (centres unmarked) [Compound 1293]	14	1.30	+/−	–
O=C1Nc2ccc(I)cc2C1(c1ccccc1)c1ccccc1 [Compound 1264]	9	2.53	+	–
O=C1Nc2ccccc2C1(c1ccccc1)c1ccccc1O (centres unmarked) [Compound 1197]	14	1.50	+	–
CC(C)(C)c1ccc(O)c(C2(c3ccccc3)C(=O)Nc3c(C(=O)O)ccc(Cl)c32)c1 (centres unmarked) [Compound 1418]	16	7.47	+	–
COC(=O)COc1ccc(C(C)(C)C)cc1C1(c2ccccc2)C(=O)Nc2ccccc21 (centres unmarked) [Compound 1402]	9	3.94	+	–
CC(C)(C)c1ccc(O)c(C2(Cc3ccccc3)C(=O)Nc3ccccc32)c1 (centres unmarked) [Compound 1275]	13	1.01	+/−	–
COC(=O)c1cccc2c1NC(=O)C2(c1ccccc1)c1ccccc1 [Compound 1354]	> 20	1.74	+	–

Further lines, with some results ahead:

IC50 (A549 lung cancer cells) [µM]	Compound	eIF2α-P (phosphorylation of eIF2α measured by Western blot) (eIF2α)	Ca^2+ (Ca^2+ release from intracellular stores) [1]	eIF2α phosphorylation (in words) (eIF2α)
9	O=C1Nc2ccc(F)cc2C1(c1ccccc1)c1ccccc1 [Compound 1350]	1.16	+	–
5	O=C1Nc2ccccc2C1(c1ccccc1)c1ccc(OCCO)cc1 (centres unmarked) [Compound 1299]	0.71	+	–
3	CCCCCCCCCc1ccc(O)c(C2(c3ccccc3)C(=O)Nc3ccccc32)c1 (centres unmarked) [Compound 1280]	3.89	+/−	–
8	O=C1Nc2cccc(Br)c2C1(c1ccccc1)c1ccccc1 [Compound 1272]	1.63	+	none of the compounds exhibited an increase in eIF2α phosphorylation relative to compound 1392
3	Cc1cc(C2(c3ccccc3)C(=O)Nc3ccccc32)c(NS(=O)(=O)c2ccc(I)cc2)cc1O (centres unmarked) [Compound 1592]	5.19	+	–
4	CCc1ccc2c(c1)NC(=O)C2(c1ccccc1)c1ccccc1 [Compound 1271]	1.58	+	–
4	Cc1ccccc1C1(c2cc(C(C)(C)C)ccc2O)C(=O)Nc2ccccc21 (centres unmarked) [Compound 1225]	1.69	+	–
3	CCCc1ccc(O)c(C2(c3ccccc3)C(=O)Nc3ccccc32)c1 (centres unmarked) [Compound 1283]	7.67	+	–
4	CC(C)(C)c1ccc(O)c(C2(c3ccccc3)C(=O)Nc3ccc([N+](=O)[O-])cc32)c1 (centres unmarked) [Compound 1212]	1.28	+	–
8	CCc1ccc(O)c(C2(c3ccccc3)C(=O)Nc3ccccc32)c1 (centres unmarked) [Compound 1285]	2.96	+	–
9	O=C1Nc2ccc(Br)cc2C1(c1ccccc1)c1ccccc1 [Compound 1205]	2.05	+	none of the compounds exhibited an increase in eIF2α phosphorylation relative to compound 1392
8	CC(C)(C)c1ccc(C2(c3ccccc3O)C(=O)Nc3ccccc32)cc1 (centres unmarked) [Compound 1239]	1.88	+	–
3	COc1ccccc1C1(c2cc(C(C)(C)C)ccc2O)C(=O)Nc2ccccc21 (centres unmarked) [Compound 1226]	2.22	+	–
4	CCc1ccc2c(c1)C(c1ccccc1)(c1cc(C(C)(C)C)ccc1O)C(=O)N2 (centres unmarked) [Compound 1254]	2.12	+	–
4	CC(C)(C)c1ccc(O)c(C2(c3ccccc3)C(=O)Nc3cc(Br)ccc32)c1 (centres unmarked) [Compound 1235]	3.2	+	–
3	CCCCCCc1ccc(O)c(C2(c3ccccc3)C(=O)Nc3ccccc32)c1 (centres unmarked) [Compound 1288]	6.28	+	–
6	CC(C)(C)c1ccc(O)c(C2(c3ccccc3)C(=O)Nc3c(I)cccc32)c1 (centres unmarked) [Compound 1253]	2.05	+	–
